Where “and” joins values, the source holds several entries; their conditions need not be identical. Equal entries are not always repeated.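 96-well plates; 48 h exposure; 5 concentrations. Endpoints by linear interpolation between flanking doses. Not reached: highest tested concentration assigned. The concentration for 50% growth inhibition is given as GI50. TGI marks complete inhibition of growth.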
Assays:
Assay in all cases: DTP human tumour cell line panel, 48 h
[1] = system: SK-MEL-5 melanoma
[2] = system: SK-MEL-28 melanoma
[3] = system: MCF7 breast
[4] = system: UACC-257 melanoma

Compound: O=C(NCCCCNCCCNC(=O)C(F)(F)F)C(F)(F)F
- TGI [1]: > 100 µM
- TGI [2]: > 100 µM
- TGI [3]: > 100 µM
- TGI [4]: > 100 µM

Compound: CC1(C)OC2CN(C(=O)OCc3ccccc3)C(CO)C2O1 (stereo unspecified)
- TGI [1]: > 100 µM
- TGI [2]: > 100 µM
- TGI [3]: > 100 µM
- TGI [4]: > 100 µM

Compound: Cc1ccc(N2C(=O)CC(=O)N(NC(=O)C(C)Oc3ccccc3C)C2=S)cc1 (stereo unspecified)
- TGI [1]: > 100 µM
- TGI [2]: > 100 µM
- TGI [3]: > 100 µM
- TGI [4]: > 100 µM

Compound: O=C(O)c1cc2c(cc1S(=O)(=O)O)C1C(C3C2C2(Cl)C(Cl)=C(Cl)C3(Cl)C2(Cl)Cl)C2(Cl)C(Cl)=C(Cl)C1(Cl)C2(Cl)Cl (stereo unspecified)
- TGI [1]: > 100 µM
- TGI [2]: > 100 µM
- TGI [3]: > 100 µM
- TGI [4]: > 100 µM

Compound: CCCCN(CCCC)c1ccc(N=Nc2ccc(S(=O)(=O)O)cc2)cc1
- TGI [1]: 43.4 µM
- TGI [2]: > 100 µM
- TGI [3]: 49.6 µM
- TGI [4]: > 100 µM

Compound: COc1ccc2c(-c3ccc(O)cc3)c(Oc3ccccc3)c(=O)oc2c1
- TGI [1]: > 52 µM
- TGI [2]: > 100 µM
- TGI [3]: > 100 µM
- TGI [4]: > 100 µM

Compound: COc1ncc(C#CC(=O)c2ccccc2OC)c(OC)n1
- TGI [1]: 5.85 µM
- TGI [2]: 8.06 µM
- TGI [3]: 2.91 µM
- TGI [4]: 8.79 µM

Compound: O=C(/C(Cl)=C/c1ccccc1)c1ccccc1
- TGI [1]: 12.1 µM
- TGI [2]: 6.06 µM
- TGI [3]: > 28.4 µM
- TGI [4]: 19.3 µM

Compound: CC1CSc2nc3[nH]c(=S)[nH]c3c(=O)n2C1 (stereo unspecified)
- TGI [1]: > 100 µM
- TGI [2]: > 100 µM
- TGI [3]: > 100 µM
- TGI [4]: > 100 µM

Compound: Cc1ccc(NNc2cc(=O)[nH]c(=O)[nH]2)cc1Cl
- TGI [1]: > 100 µM
- TGI [2]: 31.7 µM
- TGI [4]: 32 µM

Compound: C/C=C/OC1C(C2COC(C)(C)O2)OC2OC(C)(C)OC21 (stereo unspecified)
- TGI [1]: > 100 µM
- TGI [2]: > 100 µM
- TGI [3]: > 100 µM
- TGI [4]: > 100 µM

Compound: C=CCC1(O)c2cccc(O)c2C(=O)c2cccc(O)c21 (stereo unspecified)
- TGI [1]: 26.4 µM
- TGI [2]: 84.7 µM
- TGI [3]: 76.9 µM
- TGI [4]: 38.7 µM

Compound: CC1C=C(NCC2(CO)CCC2)NC(N)=N1 (stereo unspecified)
- TGI [1]: > 100 µM
- TGI [2]: > 100 µM
- TGI [3]: > 100 µM
- TGI [4]: > 100 µM

Compound: COc1ccc(C2c3cc4c(cc3OC(N3CCOCC3)C2C)OCO4)c(OC)c1 (stereo unspecified)
- TGI [1]: 11.5 µM
- TGI [2]: 29.8 µM
- TGI [3]: 33.8 µM
- TGI [4]: 85.1 µM

Compound: C[C@@H]1CCN(C(=O)CC#N)C[C@@H]1N(C)c1ncnc2[nH]ccc12
- GI50 [1]: > 100 µM
- TGI [1]: > 100 µM
- GI50 [2]: 62.6 µM
- TGI [2]: > 100 µM
- GI50 [3]: > 100 µM
- TGI [3]: > 100 µM
- GI50 [4]: > 100 µM
- TGI [4]: > 100 µM

Compound: O=C1CNc2cc(N3CCN(c4cccc(C(F)(F)F)c4)CC3)ccc2N1
- TGI [1]: 40.3 µM
- TGI [2]: > 100 µM
- TGI [3]: > 90.1 µM
- TGI [4]: > 100 µM

Compound: CC(=O)NC1CCC(NC(=O)OC(C)(C)C)C(NC(=O)OC(C)(C)C)C1 (stereo unspecified)
- TGI [1]: > 100 µM
- TGI [2]: > 100 µM
- TGI [3]: > 100 µM
- TGI [4]: > 100 µM

Compound: CC1=NN(C(=O)CC(=O)Nc2cccc(Cl)c2)C(=O)C1N=Nc1ccc(S(=O)(=O)c2ccc(N=NC3C(=O)N(C(=O)CC(=O)Nc4cccc(Cl)c4)N=C3C)cc2)cc1 (stereo unspecified)
- TGI [1]: > 100 µM
- TGI [2]: > 100 µM
- TGI [3]: > 100 µM
- TGI [4]: > 100 µM

Compound: CNC(=O)CNC(=O)CCC(=O)N(C)C
- TGI [1]: > 100 µM
- TGI [2]: > 100 µM
- TGI [3]: > 100 µM
- TGI [4]: > 100 µM

Compound: C=CC1(CBr)CCC(C(C)(C)Br)O1 (stereo unspecified)
- TGI [1]: 23.2 µM
- TGI [2]: 23.9 µM
- TGI [3]: 34.1 µM
- TGI [4]: 28.9 µM

Compound: CCOC(=O)CC[C@@H](NC(=O)c1ccc(NCc2ccc3nc(OC)c(OC)nc3c2)cc1)C(=O)OCC
- TGI [1]: 27.9 µM
- TGI [2]: 22.8 µM
- TGI [3]: > 31.6 µM
- TGI [4]: 31.4 µM

Compound: O/N=C1\CC2(N3CCOCC3)CCC1(Cc1ccccc1)CC2
- TGI [1]: > 100 µM
- TGI [2]: > 100 µM
- TGI [3]: > 100 µM
- TGI [4]: > 100 µM

Compound: C/C(=N/NC(=S)N(Cc1ccccn1)Cc1ccccn1)c1cnccn1
- TGI [1]: > 37.9 µM
- TGI [2]: > 61.8 µM
- TGI [3]: > 100 µM
- TGI [4]: 8.61 µM

Compound: Cc1ccc(NC(=S)NNC(=O)c2cc(-c3ccccc3)nc3ccccc23)cc1C
- TGI [1]: 34.4 µM
- TGI [2]: 78.8 µM
- TGI [3]: 47.8 µM
- TGI [4]: 60.1 µM

Compound: CC1(C)SC2C(NC(=O)Cc3ccccc3)C(=O)N2C1C(=O)O (stereo unspecified)
- TGI [1]: > 100 µM
- TGI [2]: > 100 µM
- TGI [3]: > 100 µM
- TGI [4]: > 100 µM

Compound: COc1ccc(CN=C2Nc3ccncc3S(=O)(=O)N2c2ccccc2)cc1
- TGI [1]: 47.2 µM
- TGI [2]: 87.6 µM
- TGI [3]: > 100 µM
- TGI [4]: > 100 µM

Compound: CCCCCC(/C=N/NC(N)=S)C(O)(C(F)(F)F)C(F)(F)F (stereo unspecified)
- TGI [1]: > 10 µM
- TGI [2]: > 10 µM
- TGI [3]: > 10 µM
- TGI [4]: > 10 µM

Compound: CSc1nc(-c2cc3c(c(SC)n2)CCC3)cc2c1CCC2
- TGI [1]: > 100 µM
- TGI [2]: > 100 µM
- TGI [4]: > 100 µM

Compound: COc1ccc(S(=O)Cc2cc(OC)ccc2OC)cc1 (stereo unspecified)
- TGI [2]: > 100 µM
- TGI [3]: > 100 µM
- TGI [4]: > 100 µM

Compound: Cn1c2c(c3ccccc31)CC(=O)N1CCCCC1C21OCCO1 (stereo unspecified)
- TGI [1]: > 100 µM
- TGI [2]: > 100 µM
- TGI [3]: > 100 µM
- TGI [4]: > 100 µM

Compound: CC(C)(N=NC(C)(C)C1=NCCN1)C1=NCCN1
- TGI [1]: > 100 µM
- TGI [2]: > 100 µM
- TGI [3]: > 100 µM
- TGI [4]: > 100 µM

Compound: O=[N+]([O-])/C(C(Cl)=C(Cl)Cl)=C(/Sc1ccccc1)N1CCOCC1
- TGI [1]: 11.4 µM
- TGI [2]: 17.6 µM
- TGI [3]: 8.53 µM
- TGI [4]: 23.6 µM

Compound: CCC(/C=C/c1ccccc1)=N\NC(=S)N/N=C(/C=C/c1ccccc1)CC
- TGI [1]: > 100 µM
- TGI [2]: > 100 µM
- TGI [3]: > 100 µM
- TGI [4]: > 100 µM

Compound: O=[N+]([O-])c1cccc2nc3ccccc3c(NCCNCCO)c12
- TGI [1]: 0.00391 µM
- GI50 [2]: 0.0239 µM
- TGI [2]: 0.177 µM and 0.202 µM
- TGI [3]: 0.0373 µM and 0.0177 µM
- GI50 [4]: 0.0126 µM
- TGI [4]: 0.034 µM and 0.0325 µM

Compound: COC(=O)CC1(O)C(C=C(C)C)C(C(=O)OC)C(=O)C(C(=O)OC)C1C(=O)OC (stereo unspecified)
- TGI [1]: > 100 µM
- TGI [2]: > 100 µM
- TGI [3]: > 100 µM
- TGI [4]: > 100 µM

Compound: COC(=O)c1cc(C)ccc1CC(Cc1ccccc1C)C(=O)OC (stereo unspecified)
- TGI [1]: 28.4 µM
- TGI [2]: > 100 µM
- TGI [3]: 94.8 µM
- TGI [4]: 91.9 µM

Compound: Cc1ccc(-c2c(C#N)c(S)n(NS(=O)(=O)c3ccccc3)c(=O)c2C#N)cc1
- TGI [1]: 69.4 µM
- TGI [2]: > 100 µM
- TGI [3]: > 100 µM
- TGI [4]: > 100 µM

— PubChem BioAssay (NCI)
